According to EP0059606A1, “Benzothiopyrano(2,3-d)-v-triazole derivatives and pharmaceutical compositions containing them” (BEECHAM GROUP PLC, priority 1981, dated 1982):

System: rat PCA
Experiment: Passive cutaneous anaphylaxis (PCA) in rats
Format: in vivo
Conditions: iv, 0 h, carrier PBS with NaHCO3, time 0 mins between administration and antigen challenge
Method: Serum containing heat labile homocytotropic antibody was raised in rats to crystallised ovalbumin (Grade 3 Sigma) by the Method of I. Mota (Immunology 7, 681 (1964)) using Bordetella pertussis vaccine ([…] Burroughs Welcome) as adjuvant.
Passive cutaneous anaphylaxis (PCA) was carried out by a method based on that of Ovary and Bier, (Proc. Soc. Exp. Bio. Med., 81; 584 (1952)) as modified by Goose and Blair (Immunology, 16, 749 (1969)) Male Sprague Dawley rats 230 - 340 gm were given 0.1 ml of each of six two fold serial dilutions of pooled antiserum in 0.9% saline (Polyfusor Boots) injected intradermally into separate sites on their shaved backs. 72 Hours later the rats were challenged by intravenous injection of 0.3 ml of a 1% solution of ovalbumin in isotonic saline buffered with 0.05M, pH 7.2 Sorenson Buffer (Bactohaemagglutination buffer Difco Laboratories), mixed with 0.2 ml of a 5% solution of Pontamine Sky Blue (6 BX C.l. 24410 Raymond A Lamb) in isotonic saline. The rats were killed after 20 minutes and the diameter of the blue wheals at the antibody injection sites was measured on the outer surface of the skin. The starting dilution of the serum was adjusted so that there was no response, after challenge, at the injection site of the highest dilution and a maximum response at the lowest dilutions. Typically, six twofold serial dilutions of the serum from 1/4 to 1/128 were used.
Compounds were tested for their ability to reduce the diameter of the wheals at those intradermal sites which in control animals gave less than maximum response. Each dose of the compounds was administered to six rats at a measured time prior to intravenous challenge with ovalbumin. Control groups of six rats were given the same volume (0.2 ml: 100g^-1)of carrier fluid at the same time prior to the challenge.
The results were calculated as follows: % inhibition of PCA = 100 (1 - a/b) where a = the sum of the diameters of the wheals produced in the test animal at the sites of antibody dilutions as used in control groups and b = the mean sum of the diameters of the wheals produced in the control group of animals at those antibody sites where at least five out of six of the animals gave less than maximum response. A typical variation in the control group of animals was SEM+ 6%.

Structure (SMILES)	inhibition in vivo at 0.5 mg/kg [%]	inhibition in vivo at 2 mg/kg [%]	inhibition in vivo at 1 mg/kg [%]	inhibition in vivo at 10 mg/kg [%]
O=c1c2ccccc2[s+]([O-])c2nn[nH]c12 (racemic) [Example 9b, 9-Oxo-lH,9H-benzothiopyrano[2,3-dl-v-triazole-4-oxide]	30	61	–	–
O=c1c2ccccc2sc2nn[nH]c12 [Example 1f, 9-Oxo-1H,9H-benzothiopyrano[2,3-d]-v-triazole]	–	–	35	90
O=C1c2ccccc2S(=O)(=O)c2nn[nH]c21 [Example 2b, 9-Oxo-1H,9H-benzothiopyrano[2,3-d]-v-triazole-4,4-dioxide]	–	–	–	68
Cc1ccc2sc3nn[nH]c3c(=O)c2c1 [Example 3d, 7-Nethyl-9-oxo-1H,9H-benzothiopyrano[2,3-d]-v-triazole]	–	–	–	42
Cc1ccc2c(c1)C(=O)c1[nH]nnc1S2(=O)=O [Example 4b, 7-Methyl-9-oxo-IH, 9H-benzothiopyrano[2,3-d]-v-triazole-4,4-dioxide]	–	–	–	65
Cc1cc2sc3nn[nH]c3c(=O)c2cc1C [Example 6d, 6,7-Dimethyl-9-oxo-1H,9H-benzothiopyrano[2,3-d]-v-triazole]	65	90	86	–
Cc1cc2c(cc1C)S(=O)(=O)c1nn[nH]c1C2=O [Example 7b, 6,7-Dimethyl-9-oxo-lH,9H-benzothiopyrano[2,3-d]-v-triazole-4,4-dioxide]	56	74	59	–
COc1ccc2sc3nn[nH]c3c(=O)c2c1 [Example 8d, 7-Methoxy-9-oxo-lH,9H-benzothiopyrano[2,3-dl-v-triazole]	34	58	–	–
